PMC8595825 (Journal of medicinal chemistry, 2021)

Test system: M. tuberculosis H37Rv
Type: cell-based, Mycobacterium tuberculosis H37Rv
Conditions: 1× to 8× MIC90, 8 weeks, 3 × 10^8 cells

Row | SMILES | spontaneous mutation frequency
1 | CCCCCCCCn1c2c([n+](CCCC)c1C)C(=O)c1ccccc1C2=O.[Br-] [compound 32] | < 3 × 10^−9 /CFU
2 | CCCCCCCn1c2c([n+](CCCCC)c1C)C(=O)c1ccccc1C2=O.[Br-] [compound 48] | < 3 × 10^−9 /CFU
